Results from US20080262097A1, “Formulations” (priority 2005, published 2008).
Converted amounts (≈) assume the structure as drawn. Where two headings read alike, the source gives them in different places.

Tests used:
Assay in all cases: MIC assay
Format in all cases: cell-based
S. aureus ATCC 25923 = conditions: Staphylococcus aureus, ATCC25923
Protocol: (§1) The staphylococci and enterococci were cultured and maintained on Mueller-Hinton Medium (agar and broth) at pH 7.2; they were incubated aerobically at 37° C. for 24 hours.
(§2) This is a standard international method for quantitatively assessing the antimicrobial activity of a compound in a liquid medium. The method used a 96-well microtitre plate, capable of holding about 200 μl of liquid per well. […] The culture media were as described above for the relevant test organisms.
(§3) The wells were inoculated with a liquid suspension of freshly grown micro-organism and incubated under the conditions described above. After incubation, the microtitre plate was examined visually (with the aid of a light box) for cell pellets in and/or opaque wells, which would indicate microbial growth. The MIC value was recorded as the lowest concentration of test compound required to inhibit microbial growth, ie, the lowest concentration for which the liquid in the well remained clear.
(§4) The assays were conducted in duplicate and included both negative (culture medium only) and positive (culture medium, diluting solvent and inoculum) controls.

[1] = system: S. aureus CPHL GISA HO41340156; conditions: Staphylococcus aureus
Protocol: as §1, §2, §3, §4

S. aureus ATCC 12604 = conditions: Staphylococcus aureus, ATCC12604
Protocol: as §1, §2, §3, §4

S. aureus ATCC 12606 = conditions: Staphylococcus aureus, ATCC12606
Protocol: as §1, §2, §3, §4

[2] = system: Staphylococcus warneri ATCC 27836; conditions: ATCC27836
Protocol: as §1, §2, §3, §4

[3] = system: Staphylococcus capitis ATCC 27840; conditions: ATCC27840
Protocol: as §1, §2, §3, §4

[4] = system: Staphylococcus haemolyticus ATCC 29970; conditions: ATCC29970
Protocol: as §1, §2, §3, §4

[5] = system: Staphylococcus auricularis ATCC 33753; conditions: ATCC33753
Protocol: as §1, §2, §3, §4

S. aureus CPHL EMRSA 17 = conditions: Staphylococcus aureus
Protocol: as §1, §2, §3, §4

S. aureus CPHL VISA Mu50 = conditions: Staphylococcus aureus
Protocol: as §1, §2, §3, §4

S. aureus CPHL VISA Mu3 = conditions: Staphylococcus aureus
Protocol: as §1, §2, §3, §4

[6] = system: Staphylococcus xylosus ATCC 29971; conditions: ATCC29971
Protocol: as §1, §2, §3, §4

[7] = system: Staphylococcus aureus ATCC 12600; conditions: ATCC12600
Protocol: as §1, §2, §3, §4

[8] = system: Staphylococcus hominis ATCC 27844; conditions: ATCC27844
Protocol: as §1, §2, §3, §4

[9] = system: Staphylococcus simulans ATCC 27848; conditions: ATCC27848
Protocol: as §1, §2, §3, §4

S. aureus ATCC 12602 = conditions: Staphylococcus aureus, ATCC12602
Protocol: as §1, §2, §3, §4

S. aureus ATCC 12601 = conditions: Staphylococcus aureus, ATCC12601
Protocol: as §1, §2, §3, §4

S. aureus ATCC 12605 = conditions: Staphylococcus aureus, ATCC12605
Protocol: as §1, §2, §3, §4

[10] = system: Staphylococcus cohnii ATCC 29974; conditions: ATCC29974
Protocol: as §1, §2, §3, §4

S. aureus ATCC 12607 = conditions: Staphylococcus aureus, ATCC12607
Protocol: as §1, §2, §3, §4

## CC(C)(C)c1cc(O)ccc1O [TBHQ, t-butyl hydroquinone]
S. aureus ATCC 25923
  MIC: 7.8 µg/mL (≈ 46.9 µM)
[1]
  MIC: 7.8 µg/mL (≈ 46.9 µM)
S. aureus ATCC 12604
  MIC: 7.8 µg/mL (≈ 46.9 µM)
S. aureus ATCC 12606
  MIC: 7.8 µg/mL (≈ 46.9 µM)
[2]; Staphylococcus warneri
  MIC: 3.9 µg/mL (≈ 23.5 µM)
[3]; Staphylococcus capitis
  MIC: 1.95 to 3.9 µg/mL (≈ 11.7 to 23.5 µM)
[4]; Staphylococcus haemolyticus
  MIC: 3.9 µg/mL (≈ 23.5 µM)
[5]; Staphylococcus auricularis ATCC 33753, read-out: MIC
  MIC: 0.98 µg/mL (≈ 5.9 µM)
S. aureus CPHL EMRSA 17
  MIC: 1.95 µg/mL (≈ 11.7 µM)
S. aureus CPHL VISA Mu50
  MIC: 3.9 µg/mL (≈ 23.5 µM)
S. aureus CPHL VISA Mu3
  MIC: 3.9 µg/mL (≈ 23.5 µM)
[6]; Staphylococcus xylosus
  MIC: 7.8 µg/mL (≈ 46.9 µM)
[7]
  MIC: 3.9 µg/mL (≈ 23.5 µM)
[8]; Staphylococcus hominis
  MIC: 1.95 µg/mL (≈ 11.7 µM)
[9]; Staphylococcus simulans
  MIC: 7.8 µg/mL (≈ 46.9 µM)
S. aureus ATCC 12602
  MIC: 3.9 µg/mL (≈ 23.5 µM)
S. aureus ATCC 12601
  MIC: 7.8 µg/mL (≈ 46.9 µM)
S. aureus ATCC 12605
  MIC: 3.9 µg/mL (≈ 23.5 µM)
[10]
  MIC: 3.9 µg/mL (≈ 23.5 µM)
S. aureus ATCC 12607
  MIC: 3.9 µg/mL (≈ 23.5 µM)

## O=C(OOC(=O)c1ccccc1)c1ccccc1 [benzoyl peroxide]
S. aureus ATCC 25923; S. aureus ATCC 25923, read-out: MIC
  MIC: 250 µg/mL (≈ 1030 µM)
[1]
  MIC: 125 µg/mL (≈ 516 µM)
S. aureus ATCC 12604
  MIC: 125 µg/mL (≈ 516 µM)
S. aureus ATCC 12606; S. aureus ATCC 12606, read-out: MIC
  MIC: 250 µg/mL (≈ 1030 µM)
[2]; Staphylococcus warneri ATCC 27836, read-out: MIC
  MIC: > 250 µg/mL
[3]; Staphylococcus capitis ATCC 27840, read-out: MIC
  MIC: 250 µg/mL (≈ 1030 µM)
[4]; Staphylococcus haemolyticus ATCC 29970, read-out: MIC
  MIC: 250 µg/mL (≈ 1030 µM)
[5]; Staphylococcus auricularis
  MIC: 15.6 µg/mL (≈ 64.4 µM)
S. aureus CPHL EMRSA 17
  MIC: 125 µg/mL (≈ 516 µM)
S. aureus CPHL VISA Mu50
  MIC: 125 µg/mL (≈ 516 µM)
S. aureus CPHL VISA Mu3
  MIC: 125 µg/mL (≈ 516 µM)
[6]; Staphylococcus xylosus ATCC 29971, read-out: MIC
  MIC: 250 µg/mL (≈ 1030 µM)
[7]
  MIC: 125 µg/mL (≈ 516 µM)
[8]; Staphylococcus hominis ATCC 27844, read-out: MIC
  MIC: 250 µg/mL (≈ 1030 µM)
[9]; Staphylococcus simulans ATCC 27848, read-out: MIC
  MIC: > 250 µg/mL
S. aureus ATCC 12602
  MIC: 125 µg/mL (≈ 516 µM)
S. aureus ATCC 12601; S. aureus ATCC 12601, read-out: MIC
  MIC: 250 µg/mL (≈ 1030 µM)
S. aureus ATCC 12605; S. aureus ATCC 12605, read-out: MIC
  MIC: 250 µg/mL (≈ 1030 µM)
[10]
  MIC: 62.5 µg/mL (≈ 258 µM)
S. aureus ATCC 12607; S. aureus ATCC 12607, read-out: MIC
  MIC: 250 µg/mL (≈ 1030 µM)
